Target: T1, Human Neutrophil Elastase (HNE) (Homo sapiens, UniProt P08246)
T1 construct: Human Neutrophil Elastase (HNE) purified from serum; purchased Calbiochem 324681; host or cells: natural source; printed as 'purified from serum'
T1 sequence (P08246 30-247 limits assumed): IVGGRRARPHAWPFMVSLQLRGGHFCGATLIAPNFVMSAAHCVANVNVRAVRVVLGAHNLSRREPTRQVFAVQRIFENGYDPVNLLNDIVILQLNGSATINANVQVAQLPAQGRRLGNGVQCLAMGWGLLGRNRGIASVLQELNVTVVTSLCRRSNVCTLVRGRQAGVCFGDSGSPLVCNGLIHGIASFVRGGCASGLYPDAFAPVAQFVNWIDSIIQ
Test: Human Neutrophil Elastase Quenched-FRET Assay
Assay type: biochemical
Conditions: HNE purified from serum; substrate MeOSuc-AAPV-AMC; 15 min pre-incubation, 30 min incubation at room temperature; read-out: Inhibition of Human Neutrophil Elastase IC50
Protocol: Human Neutrophil Elastase Quenched-FRET Assay
The assay uses Human Neutrophil Elastase (HNE) purified from serum (Calbiochem art. 324681; Ref. Baugh, R. J. et al., 1976, Biochemistry. 15, 836-841). HNE was stored in as 50 mM NaOAc, 200 mM NaCl, pH 5.5 with added 30% glycerol at −20° C. The protease substrate used was Elastase Substrate V Fluorogenic, MeOSuc-AAPV-AMC (Calbiochem art. 324740; Ref. Castillo, M. J. et al., 1979, Anal. Biochem. 99, 53-64). The substrate was stored in DMSO at −20° C. The assay additions were as follows: Test compounds and controls were added to black 96-well flat-bottom plates (Greiner 655076), 1 μL in 100% DMSO, followed by 30 μL HNE in assay buffer with 0.01% TritonX-100. The assay buffer constitution was: 100 mM Tris (pH 7.5) and 500 mM NaCl. The enzyme and the compounds were incubated at room temperature for 15 minutes. Then 30 μl substrate in assay buffer was added. The assay was stopped after 30 minutes incubation at room temperature by adding 60 μl stop solution (140 mM acetic acid, 200 mM sodium monochloroacetate, 60 mM sodium acetate, pH 4.3). Fluorescence was measured on a Wallac 1420 Victor 2 instrument at settings: Excitation 380 nm, Emission 460 nm. IC50 values were determined using Xlfit curve fitting using model 205.

SMILES | IC50 [nM]
Cc1c(CCc2cccnc2)cc(C(=O)NCc2ccc(S(C)(=O)=O)cc2)c(=O)n1-c1cccc(C(F)(F)F)c1 [Example 8, 6-Methyl-N-[4-(methylsulfonyl)benzyl]-2-oxo-5-(2-pyridin-3-ylethyl)-1-[3-(trifluoromethyl)phenyl]-1,2-dihydropyridine-3-carboxamide] | 83
CCCN(C)C(=O)c1cc(C(=O)NCc2ccc(S(C)(=O)=O)cc2)c(=O)n(-c2cccc(C(F)(F)F)c2)c1C [Example 16, 6-Methyl-2-oxo-1-(3-trifluoromethyl-phenyl)-1,2-dihydro-pyridine-3,5-dicarboxylic acid 3-(4-methanesulfonyl-benzylamide)5-(methyl-propyl-amide)] | 48
Cc1c(C(=O)N2CCC[C@@H]2CO)cc(C(=O)NCc2ccc(S(C)(=O)=O)cc2)c(=O)n1-c1cccc(C(F)(F)F)c1 [Example 19, 5-((2R)-2-Hydroxymethyl-pyrrolidine-1-carbonyl)-6-methyl-2-oxo-1-(3-trifluoromethyl-phenyl)-1,2-dihydro-pyridine-3-carboxylic acid 3-(4-methanesulfonyl-benzylamide)] | 99
Cc1c(CNCC2CC2)cc(C(=O)NCc2ccc(S(C)(=O)=O)cc2)c(=O)n1-c1cccc(C(F)(F)F)c1 [Example 58, 5-{[(Cyclopropylmethyl)amino]methyl}-6-methyl-N-[4-(methylsulfonyl)benzyl]-2-oxo-1-[3-(trifluoromethyl)phenyl]-1,2-dihydropyridine-3-carboxamide] | 51
Cc1c(OCCO)cc(C(=O)NCc2ccc(S(C)(=O)=O)cc2)c(=O)n1-c1cccc(C(F)(F)F)c1 [Example 66, 5-(2-Hydroxyethoxy)-6-methyl-N-[4-(methylsulfonyl)benzyl]-2-oxo-1-[3-(trifluoromethyl)phenyl]-1,2-dihydropyridine-3-carboxamide] | 22
